US7098334B2 (Industrial Research Limited, priority 2002, dated 2006)

Columns and labels:
[1] = biological target: MTAN (Escherichia coli, UniProt P0AF12); test: Enzyme inhibition assay, MTAN (slow-onset inhibition constants); type: biochemical; settings: MTAN
Description: Ki as shown in Tables 1 and 2 is the initial inhibition constant formed by the enzyme-inhibitor complex, and Ki* is the equilibrium dissociation constant for inhibition that is observed following a period of slow-onset, tight binding inhibition. Ki* is the biologically effective constant.
Enzyme assays were conducted to assess the effectiveness of selected compounds of the invention as inhibitors of MTAP and MTAN.
Inhibitors.—Inhibitor concentrations were determined by the UV absorbance spectrum using the published millimolar extinction coefficients for 9-dazadenine of 8.5 at 275 nm at pH 7.0.
Assays.—The direct spectrophotometric assay for the conversion of MTA into adenine was measured as the decrease in absorbance at 274 nm. At 274 nm, Δε between MTA and adenine is at a maximum and produces a spectral change of 1.6 absorbance units/cm/mM (DeWolf, W. E. Jr., Fullin, F. A., and Schramm, V. L. (1979) J. Biol. Chem. 254, 10868–10875)
Slow-Onset Inhibition and Inhibition Constants.—The kinetics for slow onset inhibition and the Ki measurement was carried out by adding a known concentration of enzyme (1–5 nM) to a reaction mixture containing a substrate concentration of 200 μM. This concentration corresponds to an OD of 0.7–1.1 at […]. The formation of product was monitored as a decrease in absorbance at 274 nm. Conditions for Ki* determination used high concentrations of substrate. Two controls, one having no inhibitor and the other no enzyme were included in the experiment. The Ki values MTAP for the various compounds were calculated by fitting in the ratio of initial rates in the presence of inhibitor to without any inhibitor versus the inhibitor concentration, for the known Km and substrate concentration into the following expression.
Where Vo′ is the rate in the presence of inhibitor • Vo rate in the absence of inhibitor • [I] inhibitor concentration • And [S] is the substrate concentration
And the Ki* was calculated by fitting to the following expression
Where Vs′ is the steady-state rate following attainment of equilibrium in the presence inhibitor, and Vs is the steady-state rate in the control having no inhibitor. Both these equations are valid for competitive type inhibition.

[2] = biological target: T1, mouse liver MTAP (Mus musculus, UniProt Q9CQ65); test: MTAP activity in liver extracts of treated mice; type: in vivo
T1 construct: from tissue; host or cells: mouse liver protein extract
T1 sequence (Q9CQ65 1-283): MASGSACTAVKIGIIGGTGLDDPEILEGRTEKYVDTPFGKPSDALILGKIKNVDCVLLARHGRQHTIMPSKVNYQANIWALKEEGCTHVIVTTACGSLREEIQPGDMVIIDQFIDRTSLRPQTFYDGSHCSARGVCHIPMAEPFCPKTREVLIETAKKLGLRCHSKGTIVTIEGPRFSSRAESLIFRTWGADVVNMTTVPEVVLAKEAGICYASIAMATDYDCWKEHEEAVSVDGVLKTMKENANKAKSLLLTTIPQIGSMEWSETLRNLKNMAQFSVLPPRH
Description: (§1) Following 30 to 60 min, blood was collected or mice were sacrificed and the liver removed for tissue analysis. MTAP activity in mouse blood was measured by the conversion of radioactive MTA to radioactive 5-methylthio-α-D-ribose 1-phosphate (MTR-1P). The assay mixture contained 50 mM phosphate buffer, 1 mM dithiothreitol, 26 μM [5′-^14C]MTA with specific radioactivity of 2 μCi/μmole, 0.5% triton X-100, and the desired amount of tissue sample, in a total volume of 100 μL. Reactions were stopped at various times by the addition of perchloric acid to decrease the pH to 2.0. The protein precipitate was removed by centrifugation, and the supernatant was neutralized to near pH 7 before being placed on a charcoal column. The column was eluted with buffer near pH 7. The product MTR-1P elutes, while unreacted [5′-^14C]MTA remains on the column. The amount of MTAP activity from control and treated mice is compared.

[3] = biological target: T2, MTAP activity in mouse blood (Mus musculus, UniProt Q9CQ65); test: MTAP activity in blood of treated mice; type: in vivo; settings: interperitoneal injection of 10 micromoles; blood sampled 30 min following injection
T2 construct: from tissue; host or cells: mouse blood
T2 sequence (Q9CQ65 1-283): T1 sequence (Q9CQ65 1-283)
Description: as §1, with “5′-Methylthio-Immucillin-A (5′-methylthio-ImmA) (10 micromoles) was administered to mice orally, by interperitoneal injection or by intravenous injection. Following” for “Following”

[4] = test system: Lewis lung carcinoma cells; test: Radiation sensitizing effect on Lewis lung carcinoma cells; type: cell-based; settings: 5′-methylthio-ImmA at 2 μM; 10 Gy X-ray; cells counted by Trypan Blue after 48 hrs
Description: Lewis lung carcinoma cells (1×10^6) were plated and allowed to adhere overnight in 2 mL of DMEL medium substituted with 10% fetal bovine serum, 1% Pen-Strep, 2.5% Na-Pyruvate, 1% non-essential amino acids in 6 well plates. 50 μM MTA, 50 μM MTA+2 μM 5′-methylthio-ImmA or 2 μM 5′-methylthio-ImmA was then added in 1 mL of the same medium as indicated. Control wells were treated with medium without any additions. This treatment was allowed to continue for 6 hours. In each experiment one set of treated cells were subjected to 10 Gy of X-ray irradiation and a control set received no irridation. Both irradiated and unirradiated cells were then cultured for another 48 hours in the presence of MTA±5′-methylthio-ImmA. Manual counting of living and dead cells was done by Trypan Blue dye exclusion following 48 hrs of growth. (Approximate doubling time for Lewis Lung cells was 24 hours.)

[5] = oral administration of 10 μmoles

Sequence of MTAN (P0AF12 whole entry): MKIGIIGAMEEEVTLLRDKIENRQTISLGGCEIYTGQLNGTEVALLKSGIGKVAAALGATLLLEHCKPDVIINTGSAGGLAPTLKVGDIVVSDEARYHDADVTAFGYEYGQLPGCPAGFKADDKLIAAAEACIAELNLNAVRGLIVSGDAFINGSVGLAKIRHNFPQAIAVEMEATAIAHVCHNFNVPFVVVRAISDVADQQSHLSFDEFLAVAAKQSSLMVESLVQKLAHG

CSC[C@H]1N[C@@H](c2c[nH]c3c(N)ncnc23)C(O)[C@H]1O (stereo partly drawn) [5′-methylthio-ImmA]
Ki ([1]; Ki*, equilibrium dissociation constant after slow-onset, tight binding inhibition): 0.077 ± 0.02 nM
Ki ([1]; Ki, initial inhibition constant): 0.13 ± 0.012 nM
Ki* ([1]; equilibrium dissociation constant after slow-onset, tight binding inhibition): in the pM range
reduction of MTAP activity of liver extract ([2]; intraperitoneal injection of 0.1 micromole): 70%
reduction of MTAP activity of liver extract ([2]; intraperitoneal injection of 1.0 micromole): 77%
MTAP activity in liver extracts (in words) ([2]; intravenous injection): no detectable MTAP activity
inhibition of liver MTAP ([2]; intravenous injection): > 95%
inhibition of liver MTAP [2, 5]: 90%
oral availability to MTAP inside tissues (in words) [2, 5]: orally available
rate of conversion of MTA to products by MTAP in extracts of liver ([2]; oral administration of 10 μmoles, control 1.0): 0.09 nMole/min/mg of liver protein extract
inhibition of MTAP in mouse blood compared to control blood [3]: > 90%
effect on cell growth and irradiation damage (FIG. 2) [4]: acts in a similar manner to 50 μM MTA
